# US20160015669A1, “COMPOUND, 1, 3-DIOLEIN-2-LINOLEIN, AND PHARMACEUTICAL PREPARATION AND USE THEREOF” (ZHEJIANG KANGLAITE GROUP CO., LTD., priority 2014, published 2016)
# Assays:
# Assay type in all cases: cell-based
# [1] = tested on: COLO205 (human colonic cancer cells); experiment: MTT method, inhibition of cell growth in vitro; conditions: 48 h; for IC50: COLO 205, COLO205, MTT
# Excerpt: (§1) A. Experimental Materials and the Preparation Thereof: • (1) Cell lines: PANC-1 (human pancreatic cancer cells), SKOV3 (human ovarian cancer cells), MCF-7 (human breast cancer cells), SMMC-7721 (human liver cancer cells), A549 (human lung cancer cells), BGC-823 (human gastric cancer cells), COLO205 (human colonic cancer cells), storaged and passaged maintainably in Research and Evaluation Center for Pharmacology, Shanghai Institute of Pharmaceutical Industry; • (2) DMEM complete medium supplied with 10% newborn calf serum (GIBCO BRL), 1% of penicillin (100 U/mL)+streptomycin (100 μg/mL); • (3) 0.25% trypsin solution, purchased from Invitrogen Corp. and storaged at −20; • (4) Phosphate buffer (PBS): NaCl 8 g, KCl 0.2 g, Na2HPO4 1.15 g and KH2PO4 0.2 g, dissolved in 1 L double-distilled water and autoclaved at 121 for 20 min, then storaged at 4; • (5) MTT (AMRESCO) solution: 5 mg/ml in PBS; • (6) Formazan crystal dissolving solution: SDS 10 g, isobutanol 5 ml and concentrated hydrochloric acid 0.1 ml, dissolved in 100 ml of deionized double distilled water.
# (§2) The inhibition effects of the compound of formula (I) on the above-mentioned cell lines were detected by using MTT method. The specific procedures were as follows:
# (§3) (1) Cell culture: (a) Storaged cells were taken out from the liquid nitrogen, thawed quickly in a 37 water bath, then aseptically transferred into 6 ml of cellular medium in a 10 ml centrifugal tube, centrifuged at 1000 rpm for 5 min. The supernatant was discarded, then the precipitated cells were re-suspended in 5-6 ml cellular media by pipetting and transferred into a flask in a 37 incubator for cell culture; (b) Next day, the flask was taken out from the incubator and the used medium was discarded, then the cells were incubated in 5-6 ml fresh medium in the 37 incubator; (c) On the third day, the flask was taken out from the incubator and the used medium was discarded, then 2-3 ml of PBS (pH7.4) was added into the flask with rocking for cleaning it and the used PBS was discarded. Such a cellular cleaning step was repeated once again. 3-5 drops of 0.25% trypsin solution were added into the flask with sloshing, thus well-distributed in it. The flask was capped and placed in a 37 incubator for about 3 min, and the separation of cells from the flask wall was observed under the microscope. 2 ml of cellular medium was added and cells were separated completely from the flask wall by pipetting, then the cell suspension was transferred into 2 separate clean flasks, each containing 5-6 ml medium. The cell suspension was well-distributed by pipetting, then the flask was placed in a 37 incubator. (d) Step(c) was repeated every other day. In the whole cultivation process, adherent cells were not allowed to grow too dense and suspension cells were always maintained at a logarithmic growth stage.
# (§4) (2) Preparation of the sample and the control: A proper amount of sample of the compound of formula (I) was dissolved in DMSO to obtain a solution in a concentration of 10 mg/ml. This solution was diluted in a gradient dilution with PBS to obtain a set of sample solutions in the concentration of 10 mg/ml, 5000 μg/ml, 2500 μg/ml, 1250 μg/ml, 625 μg/ml and 312.5 μg/ml, respectively.
# (§5) (3) Each diluted sample solution was added into duplicated wells of a 96 well flat-bottom microplate (10 μl/well). The correspondingly diluted DMSO solutions, as controls, were added into the wells of the microplate.
# (§6) (4) Cells in a logarithmic growth stage were trypsinized and washed, then re-suspended in the medium containing 10% calf serum. The number of living cells was counted in Trypan blue dye exclusion method and cell suspensions were adjusted into a density of 2×10^5 cell/ml.
# (§7) (5) The cell-contained 96 well flat-bottom microplate was placed in a 37 incubator and cells were incubated under 5% CO2 for 48 h.
# (§8) (6) 20 it of 5 mg/ml MTT solution was added into each well and cells were incubated continuously in the incubator for 3-4 h. […]
# [2] = tested on: BGC-823 (human gastric cancer cells); experiment: MTT method, inhibition of cell growth in vitro; conditions: 48 h; for IC50: BGC-823, MTT
# Excerpt: as §1, §2, §3, §4, §5, §6, §7, §8
# [3] = tested on: PANC-1 (human pancreatic cancer cells); experiment: MTT method, inhibition of cell growth in vitro; conditions: 48 h; for IC50: PANC-1, MTT
# Excerpt: as §1, §2, §3, §4, §5, §6, §7, §8
# [4] = tested on: SMMC-7721 (human liver cancer cells); experiment: MTT method, inhibition of cell growth in vitro; conditions: 48 h; for IC50: SMMC-7721, MTT
# Excerpt: as §1, §2, §3, §4, §5, §6, §7, §8
# 7 human tumor cell lines = experiment: MTT method, overall conclusion on 7 human tumor cell lines; conditions: various concentrations
# Excerpt: as §1
# The inhibition effects of the compound of formula (I) on the above-mentioned cell lines were detected by using MTT method. The specific procedures were as follows: […]
# [5] = tested on: MCF-7 (human breast cancer cells); experiment: MTT method, inhibition of cell growth in vitro; conditions: 48 h
# Excerpt: as §1, §2, §3, §4, §5, §6, §7, §8
# [6] = tested on: SKOV3 (human ovarian cancer cells); experiment: MTT method, inhibition of cell growth in vitro; conditions: 48 h
# Excerpt: as §1, §2, §3, §4, §5, §6, §7, §8
# [7] = tested on: A549 (human lung cancer cells); experiment: MTT method, inhibition of cell growth in vitro; conditions: 48 h
# Excerpt: as §1, §2, §3, §4, §5, §6, §7, §8
smiles,measurement,setting,value
"CC(=O)O[C@H]1C(=O)[C@@]2(C)[C@H]([C@H](OC(=O)c3ccccc3)[C@]3(O)C[C@H](OC(=O)[C@H](O)[C@@H](NC(=O)c4ccccc4)c4ccccc4)C(C)=C1C3(C)C)[C@]1(OC(C)=O)CO[C@@H]1C[C@@H]2O [Taxol, reference compound]",IC50,[1],0.75 µg/mL
same,IC50,[2],0.24 µg/mL
same,IC50,[3],0.44 µg/mL
same,IC50,[4],0.12 µg/mL
"CCCCCC=CCC=CCCCCCCCC(=O)OC(COC(=O)CCCCCCCC=CCCCCCCCC)COC(=O)CCCCCCCC=CCCCCCCCC (centres unmarked) [compound of formula (I), 1,3-diolein-2-linolein]",Inhibition on 7 human tumor cell lines (in words),7 human tumor cell lines,obvious inhibition on 7 human tumor cell lines
same,inhibition at 31.25 µg/mL,"[1]; COLO 205, COLO205, 31.25 μg/ml, read-out: Inhibition rate on the cell growth",8.95%
same,inhibition at 62.5 µg/mL,"[1]; COLO 205, COLO205, 62.5 μg/ml, read-out: Inhibition rate on the cell growth",10.7%
same,inhibition at 125 µg/mL,"[1]; COLO 205, COLO205, 125 μg/ml, read-out: Inhibition rate on the cell growth",12.6%
same,inhibition at 250 µg/mL,"[1]; COLO 205, COLO205, 250 μg/ml, read-out: Inhibition rate on the cell growth",43.9%
same,inhibition at 500 µg/mL,"[1]; COLO 205, COLO205, 500 μg/ml, read-out: Inhibition rate on the cell growth",82.3%
same,inhibition at 1000 µg/mL,"[1]; COLO 205, COLO205, 1000 μg/ml, read-out: Inhibition rate on the cell growth",93.8%
same,IC50,[1],209 µg/mL
same,inhibition at 31.25 µg/mL,"[5]; MCF7, MCF-7, 31.25 μg/ml, read-out: Inhibition rate on the cell growth",13.3%
same,inhibition at 62.5 µg/mL,"[5]; MCF7, MCF-7, 62.5 μg/ml, read-out: Inhibition rate on the cell growth",31.5%
same,inhibition at 125 µg/mL,"[5]; MCF7, MCF-7, 125 μg/ml, read-out: Inhibition rate on the cell growth",62.3%
same,inhibition at 250 µg/mL,"[5]; MCF7, MCF-7, 250 μg/ml, read-out: Inhibition rate on the cell growth",67.1%
same,inhibition at 500 µg/mL,"[5]; MCF7, MCF-7, 500 μg/ml, read-out: Inhibition rate on the cell growth",68.8%
same,inhibition at 1000 µg/mL,"[5]; MCF7, MCF-7, 1000 μg/ml, read-out: Inhibition rate on the cell growth",99.7%
same,IC50,"[5]; MCF7, MCF-7, MTT",106 µg/mL
same,inhibition at 31.25 µg/mL,"[6]; SK-OV-3, SKOV3, 31.25 μg/ml, read-out: Inhibition rate on the cell growth",9.97%
same,inhibition at 62.5 µg/mL,"[6]; SK-OV-3, SKOV3, 62.5 μg/ml, read-out: Inhibition rate on the cell growth",34%
same,inhibition at 125 µg/mL,"[6]; SK-OV-3, SKOV3, 125 μg/ml, read-out: Inhibition rate on the cell growth",76.8%
same,inhibition at 250 µg/mL,"[6]; SK-OV-3, SKOV3, 250 μg/ml, read-out: Inhibition rate on the cell growth",79.4%
same,inhibition at 500 µg/mL,"[6]; SK-OV-3, SKOV3, 500 μg/ml, read-out: Inhibition rate on the cell growth",93.8%
same,inhibition at 1000 µg/mL,"[6]; SK-OV-3, SKOV3, 1000 μg/ml, read-out: Inhibition rate on the cell growth",99.3%
same,IC50,"[6]; SK-OV-3, SKOV3, MTT",92.6 µg/mL
same,inhibition at 31.25 µg/mL,"[2]; BGC-823, 31.25 μg/ml, read-out: Inhibition rate on the cell growth",8.31%
same,inhibition at 62.5 µg/mL,"[2]; BGC-823, 62.5 μg/ml, read-out: Inhibition rate on the cell growth",63.8%
same,inhibition at 125 µg/mL,"[2]; BGC-823, 125 μg/ml, read-out: Inhibition rate on the cell growth",79%
same,inhibition at 250 µg/mL,"[2]; BGC-823, 250 μg/ml, read-out: Inhibition rate on the cell growth",76.2%
same,inhibition at 500 µg/mL,"[2]; BGC-823, 500 μg/ml, read-out: Inhibition rate on the cell growth",85%
same,inhibition at 1000 µg/mL,"[2]; BGC-823, 1000 μg/ml, read-out: Inhibition rate on the cell growth",98.5%
same,IC50,[2],85 µg/mL
same,inhibition at 31.25 µg/mL,"[7]; A549, 31.25 μg/ml, read-out: Inhibition rate on the cell growth",5.16%
same,inhibition at 62.5 µg/mL,"[7]; A549, 62.5 μg/ml, read-out: Inhibition rate on the cell growth",25.6%
same,inhibition at 125 µg/mL,"[7]; A549, 125 μg/ml, read-out: Inhibition rate on the cell growth",46.4%
same,inhibition at 250 µg/mL,"[7]; A549, 250 μg/ml, read-out: Inhibition rate on the cell growth",50.5%
same,inhibition at 500 µg/mL,"[7]; A549, 500 μg/ml, read-out: Inhibition rate on the cell growth",67%
same,inhibition at 1000 µg/mL,"[7]; A549, 1000 μg/ml, read-out: Inhibition rate on the cell growth",98.2%
same,IC50,"[7]; A549, MTT",156 µg/mL
same,inhibition at 62.5 µg/mL,"[3]; PANC-1, 62.5 μg/ml, read-out: Inhibition rate on the cell growth",0.8%
same,inhibition at 125 µg/mL,"[3]; PANC-1, 125 μg/ml, read-out: Inhibition rate on the cell growth",2.01%
same,inhibition at 250 µg/mL,"[3]; PANC-1, 250 μg/ml, read-out: Inhibition rate on the cell growth",25.9%
same,inhibition at 500 µg/mL,"[3]; PANC-1, 500 μg/ml, read-out: Inhibition rate on the cell growth",48.1%
same,inhibition at 1000 µg/mL,"[3]; PANC-1, 1000 μg/ml, read-out: Inhibition rate on the cell growth",75%
same,IC50,[3],509 µg/mL
same,inhibition at 31.25 µg/mL,"[4]; SMMC-7721, 31.25 μg/ml, read-out: Inhibition rate on the cell growth",8.81%
same,inhibition at 62.5 µg/mL,"[4]; SMMC-7721, 62.5 μg/ml, read-out: Inhibition rate on the cell growth",13.4%
same,inhibition at 125 µg/mL,"[4]; SMMC-7721, 125 μg/ml, read-out: Inhibition rate on the cell growth",38.5%
same,inhibition at 250 µg/mL,"[4]; SMMC-7721, 250 μg/ml, read-out: Inhibition rate on the cell growth",62.3%
same,inhibition at 500 µg/mL,"[4]; SMMC-7721, 500 μg/ml, read-out: Inhibition rate on the cell growth",80%
same,inhibition at 1000 µg/mL,"[4]; SMMC-7721, 1000 μg/ml, read-out: Inhibition rate on the cell growth",98.8%
same,IC50,[4],150 µg/mL
